Experimental data as given in publication PMC7899551, “Phase 1 study of Z-endoxifen in patients with advanced gynecologic, desmoid, and hormone receptor-positive solid tumors” (Oncotarget, 2021).

Test: Safety: adverse events (CTCAE v4.0), DLT, MTD
Assay type: in vivo
Protocol: This was an open-label trial of Z-endoxifen in patients with advanced solid tumors (https://clinicaltrials.gov/ identifier: NCT01273168). Z-endoxifen-HCl was supplied by the Pharmaceutical Management Branch, National Cancer Institute, as 20 and 40 mg capsules; agent was administered orally once daily on a continuous schedule in 28-day cycles with a starting dose of 20 mg/day taken either 1 hour before or 2 hours after meals. Dose escalation followed a traditional 3+3 design in which patients were dose-escalated to the next dose level (DL) in cohorts of 3 patients until dose-limiting toxicity (DLT) was observed. […] Eight dose levels (DL1-8) were examined: 20, 40, 60, 100, 140, 200, 280, and 360 mg, respectively. Two patients at DL8 received the free base form of Z-endoxifen on day 1 rather than the hydrochloride salt to assess the pharmacokinetics of that formulation.
Toxicities were graded using Common Terminology Criteria for Adverse Events (CTCAE) version 4.0. Toxicities were required to resolve to grade 2 or below prior to initiation of the next cycle. Occurrence of a DLT was to result in a dose reduction following resolution to grade ≤ 2. No more than 2 dose reductions were allowed per patient on study. The MTD was defined as the highest dose level at which no more than 1 in 6 patients experienced a DLT.

CC/C(=C(\c1ccc(O)cc1)c1ccc(OCCNC)cc1)c1ccccc1 [Z-endoxifen]
Anemia, grade 2 (DL2 40 mg, n = 6): 1 patients | Elevated ALT, grade 2 (DL2 40 mg, n = 6): 1 patients | Fatigue, grade 2 (DL2 40 mg, n = 6): 1 patients | Lymphopenia, grade 2 (DL2 40 mg, n = 6): 3 patients | Mucositis (oral), grade 2 (DL2 40 mg, n = 6): 1 patients | Thromboembolic event, grade 2 (DL2 40 mg, n = 6): 1 patients | Thromboembolic event, grade 4 (DL2 40 mg, n = 6): 1 patients | Vestibular disorder, grade 2 (DL2 40 mg, n = 6): 1 patients | DLT (DL2 (40 mg/day), patient 4): grade 4 pulmonary embolism | Anemia, grade 2 (DL3 60 mg, n = 3): 1 patients | Leukopenia, grade 2 (DL3 60 mg, n = 3): 1 patients | Neutropenia, grade 2 (DL3 60 mg, n = 3): 1 patients | Anemia, grade 2 (DL4 100 mg, n = 3): 1 patients | Lymphopenia, grade 2 (DL4 100 mg, n = 3): 1 patients | Fatigue, grade 2 (DL5 140 mg, n = 3): 1 patients | Leukopenia, grade 2 (DL5 140 mg, n = 3): 1 patients | Neutropenia, grade 2 (DL5 140 mg, n = 3): 1 patients | Reflux, grade 2 (DL5 140 mg, n = 3): 1 patients | Fatigue, grade 2 (DL6 200 mg, n = 3): 1 patients | Hypertension, grade 2 (DL6 200 mg, n = 3): 1 patients | Abdominal pain, grade 3 (DL7 280 mg, n = 7): 1 patients | Anemia, grade 2 (DL7 280 mg, n = 7): 2 patients | Diarrhea, grade 3 (DL7 280 mg, n = 7): 1 patients | Elevated ALT, grade 2 (DL7 280 mg, n = 7): 1 patients | Elevated ALT, grade 3 (DL7 280 mg, n = 7): 1 patients | Elevated AST, grade 2 (DL7 280 mg, n = 7): 1 patients | Fatigue, grade 2 (DL7 280 mg, n = 7): 1 patients | Hypophosphatemia, grade 2 (DL7 280 mg, n = 7): 1 patients | Hypophosphatemia, grade 4 (DL7 280 mg, n = 7): 1 patients | Lymphopenia, grade 2 (DL7 280 mg, n = 7): 1 patients | DLT (DL7 (280 mg/day), patient 22): grade 3 ALT elevation | Anemia, grade 2 (DL8 360 mg, n = 12): 4 patients | Anemia, grade 3 (DL8 360 mg, n = 12): 1 patients | Colonic perforation, grade 4 (DL8 360 mg, n = 12): 1 patients | Constipation, grade 2 (DL8 360 mg, n = 12): 1 patients | Dehydration, grade 3 (DL8 360 mg, n = 12): 1 patients | Dyspepsia, grade 2 (DL8 360 mg, n = 12): 1 patients | Elevated ALT, grade 2 (DL8 360 mg, n = 12): 2 patients | Elevated ALT, grade 3 (DL8 360 mg, n = 12): 1 patients | Elevated AST, grade 2 (DL8 360 mg, n = 12): 1 patients | Fatigue, grade 2 (DL8 360 mg, n = 12): 1 patients | Hyponatremia, grade 3 (DL8 360 mg, n = 12): 1 patients | Hypophosphatemia, grade 2 (DL8 360 mg, n = 12): 2 patients | Hypophosphatemia, grade 3 (DL8 360 mg, n = 12): 2 patients | Leukopenia, grade 2 (DL8 360 mg, n = 12): 1 patients | Lymphopenia, grade 2 (DL8 360 mg, n = 12): 5 patients | Lymphopenia, grade 3 (DL8 360 mg, n = 12): 1 patients | Nausea, grade 2 (DL8 360 mg, n = 12): 1 patients | Rash, grade 2 (DL8 360 mg, n = 12): 1 patients | Stroke, grade 2 (DL8 360 mg, n = 12): 1 patients | Thromboembolic event, grade 2 (DL8 360 mg, n = 12): 1 patients | adverse event at end of cycle 1, disease most likely cause (DL8 (360 mg), patient with fallopian tube carcinoma): grade 4 colonic perforation | grade 4 adverse events potentially related to the study agent (all dose levels): Three grade 4 adverse events | anemia, grade ≥ 2 (grades 2 and 3), study-related (of 40 patients enrolled): 10 patients | lymphopenia, grade ≥ 2 (grades 2 and 3), study-related (of 40 patients enrolled): 11 patients | tolerability (oral daily, 20-360 mg/day): generally well tolerated | maximum tolerated dose (oral daily, up to 360 mg/day): No maximum tolerated dose was established
